Reference: US9012407B2, “Therapies which act on neuropeptide S receptors” (The Regents of the University of California, priority 2004, dated 2015)

How the values were obtained:
[1] = test system: C57Bl/6 mice; test: Locomotor activity after i.c.v. administration in naive and habituated mice; assay type: in vivo; details: for locomotor activity: naive and habituated mice, 60 min observation
Procedure: In view of the NPSR sites of expression and the prominent expression of the NPS precursor in LC area, we hypothesized that NPS may be involved in arousal and anxiety. To start this investigation, we tested the effects of NPS on locomotor activity in both naive and habituated mice (FIG. 7A).
(§1) Male C57Bl/6 mice (National Cancer Institute, Bethesda, MD), age 10-14 weeks, were group-housed (4 animals per cage) under controlled conditions (temperature 21±2° C.; relative humidity 50-60%; 12-hour light-dark cycle, lights on 6:00 AM) with free access to food and water. Prior to drug injections, mice were briefly anesthetized with halothane. NPS was dissolved in phosphate-buffered saline (PBS, pH 7.4) and injected i.c.v. (total volume: 2 μl) as described before (Laursen and Belknap, 1986). Mice were allowed to recover for 5 min and then placed in the observation apparatus.
(§2) Locomotion was monitored in rectangular plexiglass boxes (60×40×50 cm). Horizontal activity was measured over 60 min by 18×12 infrared sensors placed 2 cm above the floor. A second row of sensors at 8 cm above the floor was used to record rearing events. The imaginary central zone was defined as a 30×20 cm rectangle in the middle of each observation area. Data were collected using MatLab (Mathworks, Natick, Mass.). Experimental procedures for open field, elevated plus-maze and light-dark box were described previously (Köster et al., 1999). Marble burying was measured in mice placed individually in polypropylene cages (30×18×12 cm) containing 18 glass marbles (1.5 cm diameter) evenly spaced on 5 cm deep rodent bedding (bed-o'cob, The Andersons Inc., Maumee, Ohio) (Njung'e and Handley, 1991). No food or water was present during the observation period. Cages were covered with a metal grid and the number of marbles covered at least two-thirds was counted after 30 min.

[2] = test system: Sprague-Dawley rats; test: Sleep-wake EEG/EMG recording after i.c.v. administration in rats; assay type: in vivo; details: for share of first hour of recording spent in wakefulness: saline 45%
Procedure: Rats were implanted with a standard set of electrodes and electroencephalograms (EEG) and electromyograms (EMG) were recorded after i.c.v. administration of NPS. Polygraphic recordings of vigilance states indicate that rats treated with 0.1 nmole and 1.0 nmole of NPS spent up to 69% and 87%, respectively, of the first hour of recording in wakefulness, compared to 45% for saline treatment (F2,21=16.80; p<0.01) (FIG. 7B).
For sleep studies, adult male Sprague-Dawley rats (250-300 g) were implanted under halothane anesthesia (1-2%) with a stainless steel cannula for i.c.v. administration and a standard set of stainless steel screw electrodes for chronic sleep recordings as reported previously (Bourgin et al., 2000). Rats were injected with NPS or vehicle (5 μl) at the beginning of the light cycle and cortical activity was recorded over 6 hours. All animal experiments had been approved by the local IACUC committee and were done in accordance with federal regulations and guidelines on animal experimentation.

[3] = test system: C57Bl/6 mice; test: Light-dark box; assay type: in vivo
Procedure: as §1, §2

[4] = test system: C57Bl/6 mice; test: Elevated plus maze; assay type: in vivo
Procedure: as §1, §2

[5] = target: T1, NPSR Ile^107 (Homo sapiens, UniProt Q6W5P4, N107I); test: Intracellular Ca2+ mobilization (FLIPR) in HEK 293 cells stably expressing NPSR Ile107; assay type: cell-based; details: Ca2+ mobilization, cAMP formation or MAPK phosphorylation
T1 construct: The Ile^107 isoform of NPSR was generated by PCR using synthetic oligonucleotides and the Quik Change Site-Directed Mutagenesis kit from Stratagene; expressed in transfected cells
T1 sequence (Q6W5P4 1-371 N107I): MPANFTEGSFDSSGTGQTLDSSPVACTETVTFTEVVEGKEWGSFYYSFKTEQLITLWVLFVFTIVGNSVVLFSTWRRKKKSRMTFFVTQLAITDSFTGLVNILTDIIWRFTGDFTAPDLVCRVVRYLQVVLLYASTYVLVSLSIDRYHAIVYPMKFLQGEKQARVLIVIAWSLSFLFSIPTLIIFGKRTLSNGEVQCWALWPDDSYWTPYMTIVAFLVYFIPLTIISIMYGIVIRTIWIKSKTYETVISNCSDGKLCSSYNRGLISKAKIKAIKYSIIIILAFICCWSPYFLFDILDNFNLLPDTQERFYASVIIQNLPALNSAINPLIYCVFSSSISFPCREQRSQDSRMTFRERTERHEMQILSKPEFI
Procedure: Changes of agonist-induced intracellular Ca^2+ were measured using the FLIPR technology as described before (5, 6). NPS and truncated NPS peptides were a gift from Phoenix Pharmaceuticals (Belmont, Calif.). Dose-response curves were calculated using GraphPad Prism (Graph Pad, San Diego). Mean EC50 values of populations of stable clones expressing either wildtype or mutant NPSR were compared using unpaired t-test and p<0.05 was considered significant.
Two cells lines expressing similar levels (measured by radioligand binding; see below) of either NPSR WT or NPSR Ile were chosen for detailed analyses of pharmacological parameters. […] In order to investigate whether this tenfold increase in agonist potency at NPSR lie was a general property of the receptor protein we compared a large number of stable clones expressing either NPSR WT or NPSR Ile^107 by establishing dose-response curves for each construct and calculating mean EC50 values for the populations.

[6] = test system: Colo205 human colon cancer cells; test: Cell proliferation, [3H]-thymidine incorporation in Colo205 cells; assay type: cell-based
Procedure: (§3) Cells were seeded in 24-well plates and grown overnight to 60-70% confluency. Following 24 h serum-starvation, 2 μCi of methyl-[^3H] thymidine was added together with increasing concentrations of NPS. 500 nM PGE2 served as a positive control. After 3 h incubation cells were washed 3 times with PBS and then lysed with 0.5 N NaOH. The lysate was neutralized with 0.5 N HCl and aliquots were counted in a liquid scintillation counter for incorporated radioactivity.

[7] = test system: human colon cancer cell line DLD-1; test: Cell proliferation, [3H]-thymidine incorporation in DLD-1 cells (negative control line); assay type: cell-based; details: no NPSR transcripts
Procedure: as §3

[8] = i.c.v., rats, compared with saline

In the case of “NPS: neuropeptide S, endogenous NPSR ligand; species of the peptide not stated at the place of the result (SFRNGVGTGMKKTSFQRAKS)”, the locomotor activity ([1]; 0.1 nmole i.c.v.) is reported as “significant increase”, the locomotor activity ([1]; 1 nmole i.c.v.) is reported as “significant increase” and the “total distance traveled, percentage of time moving, number of rearing events and center entries” value ([1]; 0.1 and 1 nmole i.c.v., mice) is reported as “significantly increased”. For the same substance, the “share of first hour of recording spent in wakefulness” value ([2]; 0.1 nmole i.c.v., rats) was “up to 69%”, the “share of first hour of recording spent in wakefulness” value ([2]; 1.0 nmole i.c.v., rats) was at most 87% and the “rebound in amount of non-REM sleep, increase vs. saline” value ([2]; fourth hour post injection, rats) was 48%. For the same substance, the “mean duration of wakefulness episodes” value ([2]; i.c.v., rats, compared to saline group) was “significant increase”, the “amount of REM sleep” value [2, 8] was “significantly reduced” and the “amount of slow wave sleep stage 1 (SWS1)” value [2, 8] was “significantly reduced”. For the same substance, the “amount of slow wave sleep stage 2 (SWS2)” value [2, 8] was “significantly reduced”, the “rebound in amount of non-REM sleep, increase vs. saline” value ([2]; second hour post injection, rats) was 20% and the “duration of arousal effect” value ([2]; single i.c.v. administration) was “within the first hour post injection”. For the same substance, the “percentage of entries in the light area” value ([3]; 0.03-3 nmole i.c.v.) was “higher percentage”, the “time in the light area” value ([3]; 0.03-3 nmole i.c.v.) was “prolonged time” and the “number of transitions between the two compartments” value ([3]; 0.1-3 nmole i.c.v.) was “significantly increased”. The “latency until first exit from the dark compartment” value ([3]; 0.3-3 nmole i.c.v.) was “significantly reduced”, the “number of transitions from closed to open arms” value ([4]; 0.1 and 1 nmole i.c.v.) was “higher number of transitions” and the “time on the open arms” value ([4]; 0.1 and 1 nmole i.c.v.) was “significantly more time”. For the same substance, the “closed-closed transitions (general activity)” value ([4]; all doses i.c.v.) was “did not reach statistical significance”, the “efficacy at NPSR Ile107 as compared to the wildtype receptor” value [5] was “ten-fold” and the “doses producing maximal thymidine incorporation” value [6] was 0.1 to 10 nM. The thymidine incorporation ([6]; 3 h incubation) was “dose-dependent stimulation” and the thymidine incorporation [7] was “no NPS-dependent thymidine incorporation”.
